{"source": "patent US20060116419A1", "about": "“Nf-kb inhibitors” (priority 2002, published 2006)", "key": {"NF-κB": {"tested_on": "NF-κB", "assay": "Nuclear translocation of NF-κB in activated cells (EMSA)", "assay_type": "cell-based", "details": "human monocytes and other mammalian cells; activation with pro-inflammatory stimuli (e.g. TNF-α, LPS)", "experimental": "(§1) NF-κB activity may also be measured in an electrophoretic mobility shift assay (EMSA) to assess the presence of NF-κB protein in the nucleus. The cells of interest are cultured to a density of 1×10^6/mL. The cells are harvested by centrifugation, washed in PBS without Ca^2+ and Mg^2+ and resuspended in PBS with Ca^2+ and Mg^2+ at 1×10^7 cells/mL. To examine the effect of compound on the activation of NF-κB, the cell suspensions are treated with various concentrations of drug or vehicle (DMSO, 0.1%) for 30 min. at 37° C. prior to stimulation with TNF-α (5.0 ng/mL) for an additional 15 min. Cellular and nuclear extracts are prepared follows. Briefly, at the end of the incubation period the cells (1×10^7 cells) are washed 2× in PBS without Ca^2+ and Mg^2+. The resulting cell pellets are resuspended in 20 uL of Buffer A (10 mM Hepes (pH 7.9), 10 mM KCl, 1.5 mM MgCl2, 0.5 mM dithiothreitol (DTT) and 0.1% NP-40) and incubated on ice for 10 min. The nuclei are pelleted by microcentrifugation at 3500 rpm for 10 min at 4° C. […] All samples are stored at −80° C. until analyzed. The protein concentration of the extracts is determined according to the method of Bradford (Bradford, 1976) with BioRad reagents.\nThe effect of compounds on transcription factor activation is assessed in an electrophoretic mobility shift assay (EMSA) using nuclear extracts from treated cells as described above. […]"}, "IKK-β": {"biological_target": "T1, IKK-β (Homo sapiens, UniProt O14920)", "T1 construct": "GST; made in house", "T1 sequence (O14920 1-756)": "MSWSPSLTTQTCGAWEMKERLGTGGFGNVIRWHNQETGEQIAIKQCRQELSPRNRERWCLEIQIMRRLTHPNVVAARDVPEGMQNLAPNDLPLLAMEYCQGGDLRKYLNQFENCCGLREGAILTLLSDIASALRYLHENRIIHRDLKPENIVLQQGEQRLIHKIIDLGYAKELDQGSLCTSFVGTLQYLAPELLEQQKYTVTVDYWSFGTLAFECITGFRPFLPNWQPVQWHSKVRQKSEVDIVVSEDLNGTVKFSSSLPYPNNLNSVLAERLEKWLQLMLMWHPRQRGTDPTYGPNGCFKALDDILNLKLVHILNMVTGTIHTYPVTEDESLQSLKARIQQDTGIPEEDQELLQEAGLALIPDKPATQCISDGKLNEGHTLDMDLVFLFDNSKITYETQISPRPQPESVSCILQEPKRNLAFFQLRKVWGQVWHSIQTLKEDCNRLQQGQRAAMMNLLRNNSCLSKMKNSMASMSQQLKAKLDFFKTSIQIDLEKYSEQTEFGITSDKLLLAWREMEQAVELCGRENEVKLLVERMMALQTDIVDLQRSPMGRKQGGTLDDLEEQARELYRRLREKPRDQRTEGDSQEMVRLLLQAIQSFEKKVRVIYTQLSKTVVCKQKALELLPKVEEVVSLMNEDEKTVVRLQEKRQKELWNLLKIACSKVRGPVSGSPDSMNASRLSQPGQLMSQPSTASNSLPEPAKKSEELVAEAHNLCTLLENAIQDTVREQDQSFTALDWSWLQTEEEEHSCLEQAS", "assay": "IKK-β kinase assay (phosphorylation of N-terminal fragment of IκB-α)", "assay_type": "biochemical", "method": "IKK-β was expressed as a GST-tagged protein, and its activity was assessed in a 96-well scintillation proximity assay (SPA). Briefly, IKK-β was diluted in assay buffer as described above (20 nM final), with various concentrations of compound or DMSO vehicle, 240 nM ATP and 200 nCi [γ-^33P]-ATP (10 mCi/mL, 2000 Ci/mmol; NEN Life Science Products, Boston, Mass.). The reaction was started with the addition of a biotinylated peptide comprising amino acids 15-46 of IκB-α (American Peptide) to a final concentration of 2.4 μM, in a total volume of 50 uL. The sample incubated for one hour a 30° C., followed by the addition of 150 uL of stop buffer (PBS w/o Ca^2+, Mg^2+, 0.1% Triton X-100 (v/v), 10 mM EDTA) containing 0.2 mg streptavidin-coated SPA PVT beads (Amersham Pharmacia Biotech, Piscataway, N.J.). The sample was mixed, incubated for 10 min. at room temperature, centrifuged (1000×g, 2 minutes), and measured on a Hewlett-Packard TopCount."}, "[1]": {"assay": "In vivo DMPK profile in preclinical species", "details": "preclinical species tested, compared with analog lacking the 4′-F group"}, "[2]": {"assay": "Oral bioavailability in rat", "assay_type": "in vivo"}, "IκB-α": {"tested_on": "IκB-α", "assay": "Degradation of IκB-α in cells activated with pro-inflammatory stimuli (Western blot)", "assay_type": "cell-based", "details": "human monocytes and other mammalian cells; activation with pro-inflammatory stimuli (e.g. TNF-α, LPS)", "experimental": "as §1, with “min.” for “min. The nuclei are pelleted by microcentrifugation at 3500 rpm for 10 min at 4° C.”\nThe effect of compounds on the phosphorylation of IκB may be monitored in a Western blot. […] Immunoreactive bands are detected using the Enchanced Chemiluminescence (ECL) assay system (Amersham Corp., Arlington Heights, Ill.)."}, "IL-8 production": {"tested_on": "IL-8 production", "assay": "Inhibition of IL-8 production through inhibition of NF-κB", "assay_type": "cell-based", "details": "through the inhibition of NF-κB", "experimental": "(§2) Effect of IKK-β inhibition on human monocyte stimulated eicosanoid and cytokine production was assessed as follows: Monocytes were isolated from heparinized whole blood by double gradient centrifugation as previously described. Isolated monocyte enriched PBMCs were then adhered to 24 well culture plates at 2×10^6 cells/mL in RPMI 1640 10% FBS (Hyclone, Logan, Utah) for 2 h. to further enrich the monocyte population. The media was then removed, cells washed once with RPMI 1640, and 1 mL RPMI 1640 10% FBS was added to the wells. Test compounds are added to the wells with a final vehicle concentration of 0.05% DMSO. Monocytes were activated by the addition of 200 ng/mL endotoxin (LPS; E. coli serotype 026:B6)(Sigma, St. Louis, Mo.) and incubated for 24 hrs. Cell-free supernates were analyzed by ELISA for TNF-α (EIA developed at SB), PGE2 (Cayman Chemical, Ann Arbor, Mich.), and IL-8 and IL-6 Biosource International, Camarillo, Calif.). Viability of the cells was determined by trypan blue exclusion."}, "[3]": {"tested_on": "human primary synovial fibroblasts", "assay": "Mediator production by stimulated human primary synovial fibroblasts", "assay_type": "cell-based", "experimental": "The effect of IKK-β inhibitors on primary synovial fibroblast mediator production was assesses as follows: Primary cultures of human RSF were obtained by enzymatic digestion of synovium obtained from adult patients with rheumatoid arthritis as previously described (Roshak et al., 1996b). Cells were cultured in Earl's Minimal Essential Medium (EMEM) which contained 10% fetal bovine serum (FBS), 100 units/ml penicillin and 100 μg/ml streptomycin (GIBCO, Grand Island, N.Y.), at 37° C. and 5% CO2. Cultures were used at passages 4 through 9 in order to obtain a more uniform type B fibroblast population. For some studies, fibroblasts were plated at 5×10^4 cells/mL in 16 mm (diameter) 24 well plates (Costar, Cambridge, Mass.). Cells (70-80% confluence) were exposed to IL-1β (1 ng/mL) (Genzyme, Cambridge, Mass.) for the designated time. Drugs in DMSO vehicle (1%) were added to the cell cultures 15 minutes prior to the addition of IL-1. Studies were conducted 3-4 times using synovial cells from different donors. RSF cellular extracts were prepared from cells treated as described above. Briefly, human RSF were removed by trypsin/EDTA, washed, and harvested by centrifugation. Cellular extracts were prepared as previously described (Dignam et al., 1983; Osborn, et al., 1989). Briefly, at the end of the incubation period the cells (1×10^7 cells) were washed 2× in PBS without Ca^2+ and Mg^2+. […]"}, "[4]": {"tested_on": "LPS-stimulated human monocytes", "assay": "Pro-inflammatory mediator production from LPS-stimulated human monocytes", "assay_type": "cell-based", "experimental": "as §2"}, "[5]": {"assay": "Oral bioavailability in mouse", "assay_type": "in vivo"}}, "data": [{"molecule": "NC(=O)Nc1sc(-c2ccc(F)cc2)cc1C(N)=O", "note": "[Formula I, 5-(4-fluoro-phenyl)-2-ureido-thiophene-3-carboxylic acid amide]", "values": [{"measurement": "nuclear translocation of NF-κB", "setting": "NF-κB", "value": "blocks"}, {"measurement": "inhibition of phosphorylation of the N-terminal fragment of IκB-α by IKK-β", "setting": "IKK-β", "value": "inhibit the phosphorylation of the N-terminal fragment of IκB-α by IKK-β"}, {"measurement": "IKK-2 inhibitory activity relative to the analog lacking the 4′-F group", "setting": "IKK-β; compared with analog lacking the 4′-F group", "value": "comparable IKK-2 inhibitory activity"}, {"measurement": "DMPK profile relative to the analog lacking the 4′-F group", "setting": "[1]", "value": "significantly improved DMPK profile"}, {"measurement": "oral bioavailability", "setting": "[2]", "value": "orally bioavailable"}, {"measurement": "degradation of IκB-α", "setting": "IκB-α", "value": "blocks the degradation of IκB-α"}, {"measurement": "inhibition of IL-8 production", "setting": "IL-8 production", "value": "has been demonstrated"}, {"measurement": "pro-inflammatory mediator production", "setting": "[3]", "value": "inhibits pro-inflammatory mediator production"}, {"measurement": "pro-inflammatory mediator production", "setting": "[4]", "value": "inhibits pro-inflammatory mediator production"}, {"measurement": "oral bioavailability", "setting": "[5]", "value": "orally bioavailable"}]}]}
